ChEMBL document CHEMBL4342404, “Anti-cholinesterase hybrids as multi-target-directed ligands against Alzheimer's disease (1998-2018)” (Bioorg Med Chem, 2019)

Legend:
[1] = molecular target: Sodium-dependent serotonin transporter (Homo sapiens, UniProt P31645); assay: Inhibition of SERT (unknown origin) expressed in HEK293 cells assessed as reduction in 5-HT reuptake incubated for 30 mins followed by centrifugation for 15 secs and measured after 30 mins; type: cell-based
[2] = molecular target: T1, Acetylcholinesterase (Rattus norvegicus, UniProt P37136); assay: Inhibition of rat cortex acetylcholinesterase using acetylthiocholine iodide as substrate incubated for 20 mins by Ellman's method
T1 sequence (P37136 whole entry): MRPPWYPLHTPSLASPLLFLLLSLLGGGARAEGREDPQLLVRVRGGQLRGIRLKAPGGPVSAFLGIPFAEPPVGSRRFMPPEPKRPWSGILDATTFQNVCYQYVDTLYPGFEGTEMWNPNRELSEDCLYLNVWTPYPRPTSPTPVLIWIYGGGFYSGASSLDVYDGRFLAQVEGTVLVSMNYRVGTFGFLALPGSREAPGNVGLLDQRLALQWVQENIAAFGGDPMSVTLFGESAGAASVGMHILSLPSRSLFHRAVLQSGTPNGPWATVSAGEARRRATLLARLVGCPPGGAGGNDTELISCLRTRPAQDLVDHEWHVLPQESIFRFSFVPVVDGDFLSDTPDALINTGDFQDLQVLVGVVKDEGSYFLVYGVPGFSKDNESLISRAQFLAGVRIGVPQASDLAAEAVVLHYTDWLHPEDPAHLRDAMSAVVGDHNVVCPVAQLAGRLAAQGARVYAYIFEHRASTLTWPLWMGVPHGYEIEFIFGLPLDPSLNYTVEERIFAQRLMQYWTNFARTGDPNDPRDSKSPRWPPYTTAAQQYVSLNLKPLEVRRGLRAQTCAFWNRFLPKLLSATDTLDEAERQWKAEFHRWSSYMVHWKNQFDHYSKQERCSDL

[3] = molecular target: 5-hydroxytryptamine receptor 1A (Homo sapiens, UniProt P08908); assay: Agonist activity at human 5H1A receptor expressed in HEK293 cells incubated for 60 mins by Eu-cAMP tracer based LANCE ultra cAMP assay; type: functional, cell-based
[4] = molecular target: T2, Cholinesterase (Equus caballus, UniProt P81908)
T2 sequence (P81908 whole entry): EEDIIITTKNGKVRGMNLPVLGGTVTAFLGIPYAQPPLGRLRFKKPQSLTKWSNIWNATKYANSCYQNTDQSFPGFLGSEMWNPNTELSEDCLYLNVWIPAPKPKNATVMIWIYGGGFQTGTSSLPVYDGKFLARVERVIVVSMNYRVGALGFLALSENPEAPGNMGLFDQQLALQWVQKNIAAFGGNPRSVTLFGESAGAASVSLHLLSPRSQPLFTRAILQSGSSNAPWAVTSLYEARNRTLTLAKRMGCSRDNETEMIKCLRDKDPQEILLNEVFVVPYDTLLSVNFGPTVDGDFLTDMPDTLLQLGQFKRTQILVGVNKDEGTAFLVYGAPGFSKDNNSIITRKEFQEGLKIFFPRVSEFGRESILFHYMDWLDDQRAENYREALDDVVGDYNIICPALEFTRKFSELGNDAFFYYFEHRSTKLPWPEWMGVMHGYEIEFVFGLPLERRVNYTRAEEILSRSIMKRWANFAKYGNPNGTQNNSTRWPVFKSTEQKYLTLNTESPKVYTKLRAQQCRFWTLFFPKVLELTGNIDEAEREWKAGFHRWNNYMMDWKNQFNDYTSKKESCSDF
Description: Inhibition of equine serum BuChE preincubated for 15 mins followed by substrate addition and measured after 15 mins by Ellman's method

[5] = molecular target: T3, Acetylcholinesterase (Electrophorus electricus, UniProt O42275)
T3 sequence (O42275 whole entry): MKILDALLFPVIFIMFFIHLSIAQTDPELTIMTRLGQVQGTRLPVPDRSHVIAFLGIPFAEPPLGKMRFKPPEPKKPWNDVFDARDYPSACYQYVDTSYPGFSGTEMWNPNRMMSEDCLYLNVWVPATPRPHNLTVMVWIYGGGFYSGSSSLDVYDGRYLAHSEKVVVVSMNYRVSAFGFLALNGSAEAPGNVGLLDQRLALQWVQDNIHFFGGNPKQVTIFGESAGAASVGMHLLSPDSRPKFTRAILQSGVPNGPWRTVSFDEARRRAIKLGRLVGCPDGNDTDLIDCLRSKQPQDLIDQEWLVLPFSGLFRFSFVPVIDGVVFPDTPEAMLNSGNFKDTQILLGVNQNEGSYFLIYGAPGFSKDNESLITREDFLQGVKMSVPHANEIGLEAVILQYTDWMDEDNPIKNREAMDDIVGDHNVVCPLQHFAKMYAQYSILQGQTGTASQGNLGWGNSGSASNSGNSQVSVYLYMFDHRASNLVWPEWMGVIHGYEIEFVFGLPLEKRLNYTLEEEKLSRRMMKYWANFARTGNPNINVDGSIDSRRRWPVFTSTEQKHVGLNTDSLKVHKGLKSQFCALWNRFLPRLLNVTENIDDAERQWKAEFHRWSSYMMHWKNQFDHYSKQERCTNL
Description: Inhibition of electric eel AChE using acetylthiocholine iodide as substrate preincubated for 15 mins followed by substrate addition and measured after 15 mins by Ellman's method

[6] = molecular target: Amine oxidase [flavin-containing] A (Homo sapiens, UniProt P21397)
Chain of Amine oxidase [flavin-containing] A (P21397 whole entry): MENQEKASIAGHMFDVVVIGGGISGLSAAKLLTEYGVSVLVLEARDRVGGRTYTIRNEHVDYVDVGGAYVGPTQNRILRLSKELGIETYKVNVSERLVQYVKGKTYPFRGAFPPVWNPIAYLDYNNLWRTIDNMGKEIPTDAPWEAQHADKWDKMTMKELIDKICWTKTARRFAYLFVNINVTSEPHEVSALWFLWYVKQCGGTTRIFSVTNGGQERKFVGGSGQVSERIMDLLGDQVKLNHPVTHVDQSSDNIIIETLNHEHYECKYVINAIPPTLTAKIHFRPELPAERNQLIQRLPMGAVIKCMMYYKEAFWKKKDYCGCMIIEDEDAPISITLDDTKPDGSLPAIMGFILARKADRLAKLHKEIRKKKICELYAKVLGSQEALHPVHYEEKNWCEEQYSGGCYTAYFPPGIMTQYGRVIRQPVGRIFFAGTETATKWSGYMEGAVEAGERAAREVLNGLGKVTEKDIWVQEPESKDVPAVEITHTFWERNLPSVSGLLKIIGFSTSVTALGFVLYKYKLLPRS
Description: Inhibition of recombinant human MAOA expressed in baculovirus infected BTI insect cells using p-tyramine as substrate preincubated for 30 mins followed by substrate addition by Amplex red reagent/horseradish peroxidase coupled fluorescence assay

[7] = molecular target: T4, Acetylcholinesterase (Homo sapiens, UniProt P22303); assay: biochemical
T4 sequence (P22303 whole entry): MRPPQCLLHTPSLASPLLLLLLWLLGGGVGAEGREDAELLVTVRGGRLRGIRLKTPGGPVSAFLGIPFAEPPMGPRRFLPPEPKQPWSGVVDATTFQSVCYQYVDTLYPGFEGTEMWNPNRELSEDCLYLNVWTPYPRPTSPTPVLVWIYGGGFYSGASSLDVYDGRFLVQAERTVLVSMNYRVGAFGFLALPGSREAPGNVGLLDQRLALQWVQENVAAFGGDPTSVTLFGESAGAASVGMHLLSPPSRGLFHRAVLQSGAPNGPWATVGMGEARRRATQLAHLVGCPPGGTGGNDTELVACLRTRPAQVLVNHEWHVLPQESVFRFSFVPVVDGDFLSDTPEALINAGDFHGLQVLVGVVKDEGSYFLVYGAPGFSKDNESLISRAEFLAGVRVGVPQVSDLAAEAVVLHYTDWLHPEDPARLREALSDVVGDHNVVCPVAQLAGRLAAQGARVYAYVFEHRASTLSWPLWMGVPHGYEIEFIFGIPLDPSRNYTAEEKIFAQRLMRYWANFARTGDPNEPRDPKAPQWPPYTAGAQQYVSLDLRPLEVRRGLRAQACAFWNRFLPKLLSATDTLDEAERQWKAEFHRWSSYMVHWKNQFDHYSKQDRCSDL
Description: Inhibition of human acetylcholinesterase expressed in HEK 293 cells using acetylthiocholine iodide as substrate by Ellman's method

[8] = molecular target: T5, Cholinesterase (Homo sapiens, UniProt P06276); assay: Inhibition of human plasma butyrylcholinesterase by Ellman's method
T5 sequence (P06276 whole entry): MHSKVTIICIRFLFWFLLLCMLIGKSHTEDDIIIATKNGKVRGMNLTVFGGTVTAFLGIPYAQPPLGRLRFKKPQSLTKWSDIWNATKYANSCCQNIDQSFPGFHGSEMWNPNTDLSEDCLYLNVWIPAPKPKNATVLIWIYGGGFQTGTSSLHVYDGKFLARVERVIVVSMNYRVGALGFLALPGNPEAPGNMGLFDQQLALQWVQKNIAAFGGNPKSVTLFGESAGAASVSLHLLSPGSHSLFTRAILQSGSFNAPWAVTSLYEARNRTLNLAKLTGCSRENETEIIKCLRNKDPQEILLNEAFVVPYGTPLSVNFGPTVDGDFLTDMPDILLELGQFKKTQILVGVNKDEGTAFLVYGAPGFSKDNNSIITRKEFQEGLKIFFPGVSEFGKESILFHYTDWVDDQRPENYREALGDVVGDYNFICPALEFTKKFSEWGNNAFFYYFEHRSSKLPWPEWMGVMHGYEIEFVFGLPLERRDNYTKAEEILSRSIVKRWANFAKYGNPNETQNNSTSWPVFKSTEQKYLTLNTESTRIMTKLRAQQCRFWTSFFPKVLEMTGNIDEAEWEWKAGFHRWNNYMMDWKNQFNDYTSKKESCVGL

[9] = molecular target: Histamine H3 receptor (Homo sapiens, UniProt Q9Y5N1); assay: biochemical
Description: Displacement of [3H]-N-alpha-methylhistamine from human H3R expressed in HEK293 cell membranes incubated for 90 mins by liquid scintillation counting method

[10] = molecular target: T5, Cholinesterase; assay: Inhibition of human serum butyrylcholinesterase using butyrylthiocholine iodide as substrate preincubated for 20 mins followed by substrate addition preincubated for 20 mins followed by substrate addition by Ellman's method
[11] = Cytotoxicity against human HepG2 cells assessed as cell viability at 1000 uM by MTT assay relative to control; type: cell-based; details: read-out: Activity
[12] = Antioxidant activity assessed as AAPH radical scavenging activity measured every min for 60 mins by ORAC-FL assay relative to trolox; type: functional
[13] = molecular target: Acetylcholinesterase (Rattus norvegicus) (UniProt P37136); assay: Inhibition of acetylcholinesterase in Wistar rat primary cortical neuron cells assessed as reduction in amyloidbeta40 level at […] incubated for 24 hrs by ELISA relative to control
[14] = molecular target: T4, Acetylcholinesterase; assay: Inhibition of human AChE-induced amyloid beta 1 to 40 (unknown origin) aggregation at 100 uM by thioflavin-T fluorescence method relative to control
[15] = molecular target: T4, Acetylcholinesterase; assay: Inhibition of human Acetylcholinesterase using acetylthiocholine as substrate preincubated for 20 mins followed by substrate addition by Ellman's method
[16] = molecular target: T5, Cholinesterase; assay: Inhibition of human serum butyrylcholinesterase using butyrylthiocholine iodide as substrate preincubated for 20 mins followed by substrate addition by Ellman's method
[17] = molecular target: T6, Beta-secretase 1 (Homo sapiens, UniProt P56817); assay: Inhibition human BACE1 expressed in baculovirus expression system at 10 uM using Panvera peptide as substrate preincubated for 60 mins followed by substrate addition and measured after 60 mins by spectrofluorometric assay relative to control
T6 sequence (P56817 whole entry): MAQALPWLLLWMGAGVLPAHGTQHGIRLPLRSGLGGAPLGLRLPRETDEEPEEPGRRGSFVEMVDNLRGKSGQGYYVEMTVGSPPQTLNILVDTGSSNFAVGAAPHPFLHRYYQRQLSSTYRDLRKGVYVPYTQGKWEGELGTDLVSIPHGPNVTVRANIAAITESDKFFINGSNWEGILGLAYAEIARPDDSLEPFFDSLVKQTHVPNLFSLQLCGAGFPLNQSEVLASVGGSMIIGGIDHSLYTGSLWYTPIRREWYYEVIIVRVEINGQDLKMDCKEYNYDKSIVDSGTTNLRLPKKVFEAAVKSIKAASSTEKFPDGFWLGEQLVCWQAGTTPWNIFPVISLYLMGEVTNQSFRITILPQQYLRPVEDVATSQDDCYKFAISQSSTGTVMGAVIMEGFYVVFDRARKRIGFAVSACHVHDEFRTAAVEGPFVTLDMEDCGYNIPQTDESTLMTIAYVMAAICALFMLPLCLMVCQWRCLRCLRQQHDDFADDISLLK

[18] = molecular target: Amyloid-beta precursor protein (Homo sapiens) (UniProt P05067); assay: Inhibition of HFIP pretreated amyloid beta (1-42) (unknown origin) self aggregation at 10 uM incubated for 24 hrs by thioflavin T based fluorescence assay relative to control
Chain of Amyloid-beta precursor protein (Homo sapiens) (P05067 whole entry): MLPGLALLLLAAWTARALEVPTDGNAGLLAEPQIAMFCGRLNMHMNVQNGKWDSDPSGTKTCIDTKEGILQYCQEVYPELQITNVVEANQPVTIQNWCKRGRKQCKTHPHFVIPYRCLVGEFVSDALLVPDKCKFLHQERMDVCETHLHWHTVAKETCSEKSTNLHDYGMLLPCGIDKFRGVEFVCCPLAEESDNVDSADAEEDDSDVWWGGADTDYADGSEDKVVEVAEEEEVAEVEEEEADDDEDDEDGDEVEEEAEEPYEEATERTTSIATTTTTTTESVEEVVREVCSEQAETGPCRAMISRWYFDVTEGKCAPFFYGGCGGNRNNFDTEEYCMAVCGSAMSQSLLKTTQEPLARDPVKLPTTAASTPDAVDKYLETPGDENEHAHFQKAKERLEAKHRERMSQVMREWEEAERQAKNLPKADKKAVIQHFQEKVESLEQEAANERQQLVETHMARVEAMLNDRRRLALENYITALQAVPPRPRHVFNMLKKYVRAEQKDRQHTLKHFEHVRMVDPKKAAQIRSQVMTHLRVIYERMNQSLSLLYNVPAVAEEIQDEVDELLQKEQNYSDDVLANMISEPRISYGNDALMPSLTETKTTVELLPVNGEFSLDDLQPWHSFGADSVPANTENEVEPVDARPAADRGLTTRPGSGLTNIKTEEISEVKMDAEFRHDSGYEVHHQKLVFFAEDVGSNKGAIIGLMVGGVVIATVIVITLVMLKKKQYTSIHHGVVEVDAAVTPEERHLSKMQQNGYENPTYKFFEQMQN

[19] = molecular target: T6, Beta-secretase 1; assay: Inhibition human BACE1 expressed in baculovirus expression system using Panvera peptide as substrate preincubated for 60 mins followed by substrate addition and measured after 60 mins by spectrofluorometric assay
[20] = molecular target: T2, Cholinesterase; assay: Inhibition of equine serum BuChE using butyrylthiocholine iodide as substrate pretreated 60 mins followed by substrate addition by Ellman's method
[21] = molecular target: T4, Acetylcholinesterase; assay: Inhibition of AChE (unknown origin)-induced human amyloid beta 1 to 40 aggregation at 100 uM by thioflavin-T fluorescence method relative to control
[22] = molecular target: T3, Acetylcholinesterase; assay: Inhibition of electric eel AChE using acetylthiocholine iodide as substrate preincubated for 6 mins followed by substrate addition and measured up to 180 secs by Ellman's method
[23] = molecular target: T2, Cholinesterase; assay: Inhibition of equine serum BuChE using S-butyrylthiocholine iodide as substrate preincubated for 6 mins followed by substrate addition and measured up to 180 secs by Ellman's method
[24] = molecular target: T5, Cholinesterase; assay: Inhibition of human butyrylcholinesterase by Ellman's method
[25] = molecular target: T4, Acetylcholinesterase; assay: Inhibition of human acetylcholinesterase by Ellman's method
[26] = molecular target: Amine oxidase [flavin-containing] B (Homo sapiens, UniProt P27338); assay: Inhibition of recombinant human MAO-B using p-tyramine as substrate preincubated for 15 mins followed by substrate addition and measured over 15 mins by Amplex red reagent/horseradish peroxidase coupled fluorescence assay
Chain of Amine oxidase [flavin-containing] B (P27338 whole entry): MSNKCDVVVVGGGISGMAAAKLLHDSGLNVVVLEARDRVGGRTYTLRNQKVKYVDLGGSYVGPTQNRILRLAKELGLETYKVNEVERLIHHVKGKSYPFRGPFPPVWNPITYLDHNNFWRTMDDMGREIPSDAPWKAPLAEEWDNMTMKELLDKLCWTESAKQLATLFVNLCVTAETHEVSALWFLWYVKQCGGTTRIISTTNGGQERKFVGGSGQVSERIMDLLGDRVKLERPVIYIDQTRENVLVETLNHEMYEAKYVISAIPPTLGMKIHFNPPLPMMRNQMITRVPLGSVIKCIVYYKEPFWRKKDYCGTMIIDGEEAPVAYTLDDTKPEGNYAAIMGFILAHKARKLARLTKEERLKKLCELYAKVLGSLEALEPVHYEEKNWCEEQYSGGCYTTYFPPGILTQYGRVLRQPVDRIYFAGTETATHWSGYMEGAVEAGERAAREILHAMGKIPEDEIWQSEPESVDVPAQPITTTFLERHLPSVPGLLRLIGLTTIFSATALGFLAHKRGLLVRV

[27] = Antioxidant activity assessed as trolox equivalent of AAPH radical scavenging activity at 10 uM preincubated for 10 mins followed by APPH addition and measured every min for 120 mins by ORAC-FL assay relative to trolox; type: functional
[28] = molecular target: Amyloid-beta precursor protein (Homo sapiens) (UniProt P05067); assay: Inhibition of HFIP pretreated amyloid beta (1-42) (unknown origin) self aggregation at 20 uM incubated for 48 hrs by thioflavin T based fluorescence assay relative to control
[29] = molecular target: T3, Acetylcholinesterase; assay: Inhibition of electric eel AChE using acetylthiocholine iodide as substrate incubated for 15 mins by Ellman's method
[30] = molecular target: Butyrylcholinesterase (Rattus norvegicus) (UniProt Q9JKC1); assay: Inhibition of rat serum butyrylcholinesterase using butyrylthiocholine iodide as substrate at 50 uM incubated for 15 mins by Ellman's method relative to control
[31] = tested on: Rattus norvegicus; assay: In vivo inhibition of MAO-B in Sprague-Dawley rat at 26 mg/kg, po administered for 2 weeks by radioassay method relative to control; type: functional; details: 336 h
[32] = tested on: Rattus norvegicus; assay: In vivo inhibition of MAO-A in Sprague-Dawley rat at 26 mg/kg, po administered for 2 weeks by radioassay method relative to control; type: functional; details: 336 h
[33] = molecular target: T7, Acetylcholinesterase (Bos taurus, UniProt P23795)
T7 sequence (P23795 whole entry): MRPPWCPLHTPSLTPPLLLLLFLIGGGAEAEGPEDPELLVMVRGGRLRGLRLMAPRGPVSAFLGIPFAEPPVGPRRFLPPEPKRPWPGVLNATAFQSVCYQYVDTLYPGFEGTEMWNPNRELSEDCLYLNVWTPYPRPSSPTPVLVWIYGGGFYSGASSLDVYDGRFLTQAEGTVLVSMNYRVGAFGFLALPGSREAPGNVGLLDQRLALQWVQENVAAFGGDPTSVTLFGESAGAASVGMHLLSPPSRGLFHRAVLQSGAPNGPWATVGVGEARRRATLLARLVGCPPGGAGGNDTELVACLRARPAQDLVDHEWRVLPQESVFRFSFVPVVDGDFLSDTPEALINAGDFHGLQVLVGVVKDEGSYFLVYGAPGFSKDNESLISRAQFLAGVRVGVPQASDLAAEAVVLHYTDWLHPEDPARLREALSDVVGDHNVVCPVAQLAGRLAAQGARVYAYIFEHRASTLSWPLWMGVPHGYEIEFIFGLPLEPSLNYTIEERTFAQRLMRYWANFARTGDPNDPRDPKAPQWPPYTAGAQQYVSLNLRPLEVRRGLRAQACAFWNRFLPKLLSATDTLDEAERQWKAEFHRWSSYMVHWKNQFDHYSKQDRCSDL
Description: Inhibition of bovine erythrocyte acetylcholinesterase using acetylthiocholine as substrate incubated for 15 mins by Ellman's method

[34] = molecular target: T3, Acetylcholinesterase; assay: Inhibition of electric eel AChE using acetylthiocholine iodide as substrate pretreated for 5 mins followed by substrate addition and measured after 2 mins by Ellman's method

## N#Cc1ccc2[nH]cc(CCCCN3CCN(c4c5c(nc6ccccc46)CCC5)CC3)c2c1
[1]
  IC50: 0.0763 µM
[2]
  IC50: 3.32 µM
[3]
  EC50: 0.107 µM

## O=C(NCCc1c[nH]c2ccccc12)c1cc(-c2ccccc2Cl)on1
[4]
  IC50: 46.1 µM
[5]
  IC50: 29.5 µM

## C#CCN(C)Cc1cc2cc(OCCCC3CCN(Cc4ccccc4)CC3)ccc2n1C
[6]
  IC50: 0.00027 µM
[7]
  IC50: 0.81 µM
[8]
  IC50: 1.82 µM
[9]
  Ki: 0.0842 µM

## COc1ccc2nc3c(c(NCCCCCCCCN(CC(=O)Nc4ccc5ccccc5c4)C(=O)/C=C/c4ccc(O)c(OC)c4)c2c1)CCCC3
[10]
  IC50: 0.0682 µM
[11]
  viability at 1000 µM: 59.4%
[12]
  Ratio: 4.29

## CC(C(=O)NCCCCCCNc1c2c(nc3ccccc13)CCCC2)c1ccc(-c2ccccc2)c(F)c1 (centres undefined)
[13]
  inhibition: 31%

## c1ccc2c(NCc3ccc(-c4ccc(CNc5c6c(nc7ccccc57)CCCC6)cc4)cc3)c3c(nc2c1)CCCC3
[14]
  inhibition: 61.8%
[15]
  IC50: 0.00361 µM
[16]
  IC50: 0.00086 µM
[17]
  inhibition: 89.7%
[18]
  inhibition: 75.5%
[19]
  IC50: 2.77 µM

## C#CCN(C)C(C)Cc1cccc(OC(=O)N(C)CCCCCC)c1 (racemic)
[20]
  IC50: 0.72 µM

## O=C(NCCCCCCNc1c2c(nc3ccccc13)CCCC2)c1cc(O)c2c(c1)C(=O)c1cccc(O)c1C2=O
[21]
  inhibition: 70.2%
[22]
  IC50: 0.0273 µM
[23]
  IC50: 0.2 µM

## Cc1cc(=O)oc2cc(OC/C=C/CCn3cnc4c(N5CCCC5)ncnc43)ccc12
[24]
  IC50: 4.65 µM

## Cc1cc(=O)oc2ccc(OC/C=C/CCn3cnc4c(N5CCCCC5)ncnc43)cc12
[25]
  IC50: 11.9 µM
[26]
  IC50: 6.8 µM

## Oc1ccc(/C=C/c2cc(O)c3ncccc3c2)cc1
[27]
  Ratio (umolequiv/umol): 2.18
[28]
  inhibition: 71.7%

## CCN(CC)Cc1ccc(/C=C/c2cnc(C)c(O)c2CO)cc1O
[29]
  IC50: 2.11 µM
[30]
  inhibition: 16.7%

## C#CCN[C@@H]1CCc2ccc(OC(=O)N(C)CC)cc21 [LADOSTIGIL]
[31]
  inhibition in vivo at 26 mg/kg: 71%
[32]
  inhibition in vivo at 26 mg/kg: 66%

## CC1=CC2Cc3nc4cc(Cl)ccc4c(N)c3C(C1)C2 (single isomer, unassigned; (+)) [HUPRINE Y]
[33]
  IC50: 0.0361 µM

## CN(C)C(=O)Oc1ccccc1-c1nc2ccccc2s1
[34]
  IC50: 20.9 µM
